Test results: patent publication US12344603B2 (Genentech, Inc., priority 2020, dated 2025)
pIC50: −log10 of the molar value. Structures can show the parent of a compound that is named as a salt.

Molecular target: IRE1α (Homo sapiens (Human), UniProt O75460, D688N)
Assay: IRE1α TR-FRET competition binding assay (IRE1α HTRF)
Settings: TR-FRET competition binding to kinase domain of IRE1α
Method in brief: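 Competition of compounds against an Alexa fluor 647 ATP-site probe (2 nM final) for the His-tagged kinase domain (0.25 nM final), detected via 2 nM Eu anti-His antibody by TR-FRET, 665 and 615 nm emission. Protein–antibody premix 1 h, 4° C; reaction 1 h, room temperature, pH 7.5 HEPES buffer.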

Sequence of IRE1α (O75460 547-977 D688N): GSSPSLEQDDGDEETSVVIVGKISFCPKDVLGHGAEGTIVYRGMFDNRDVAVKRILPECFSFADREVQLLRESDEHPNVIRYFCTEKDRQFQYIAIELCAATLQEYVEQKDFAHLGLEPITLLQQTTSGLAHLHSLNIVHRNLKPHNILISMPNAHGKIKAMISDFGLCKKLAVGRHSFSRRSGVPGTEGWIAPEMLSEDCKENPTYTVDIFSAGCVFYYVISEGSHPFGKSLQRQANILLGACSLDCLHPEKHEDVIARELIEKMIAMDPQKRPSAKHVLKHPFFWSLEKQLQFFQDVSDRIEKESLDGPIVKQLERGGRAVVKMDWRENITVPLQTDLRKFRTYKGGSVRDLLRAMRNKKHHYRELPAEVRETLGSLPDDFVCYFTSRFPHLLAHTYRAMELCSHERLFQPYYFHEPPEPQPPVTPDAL

pIC50	SMILES
9.60	CC(C)n1c(=O)c(-c2cc(F)c(NS(=O)(=O)Cc3ccc(Cl)cc3)c(F)c2)cc2cnc(N[C@H]3CC[C@H](N(C)C)CC3)nc21 [Compound 116, 1-(4-Chlorophenyl)-N-(4-(2-(((1r,4r)-4-(dimethylamino)cyclohexyl)amino)-8-isopropyl-7-oxo-7,8-dihydropyrido[2,3-d]pyrimidin-6-yl)-2,6-difluorophenyl)methanesulfonamide]
9.74	CC(C)n1c(=O)c(-c2cc(F)c(NS(=O)(=O)Cc3ccccc3)c(F)c2)cc2cnc(N[C@H]3CC[C@H](N(C)C)CC3)nc21 [Compound 117, N-(4-(2-(((1r,4r)-4-(Dimethylamino)cyclohexyl)amino)-8-isopropyl-7-oxo-7,8-dihydropyrido[2,3-d]pyrimidin-6-yl)-2,6-difluorophenyl)-1-phenylmethanesulfonamide]
8.77	Cc1ccc(CS(=O)(=O)Nc2c(F)cc(-c3cc4cnc(N[C@H]5CC[C@H](N(C)C)CC5)nc4n(C(C)C)c3=O)cc2F)cc1 [Compound 120, N-(4-(2-(((1r,4r)-4-(Dimethylamino)cyclohexyl)amino)-8-isopropyl-7-oxo-7,8-dihydropyrido[2,3-d]pyrimidin-6-yl)-2,6-difluorophenyl)-1-(p-tolyl)methanesulfonamide]
9.92	COCCN(C)[C@H]1CC[C@H](Nc2ncc3cc(-c4cc(F)c(NS(=O)(=O)Cc5ccc(F)cc5)c(F)c4)c(=O)n(C(C)C)c3n2)CC1 [Compound 122, N-(2,6-Difluoro-4-(8-isopropyl-2-(((1r,4r)-4-((2-methoxyethyl)(methyl)amino)cyclohexyl)amino)-7-oxo-7,8-dihydropyrido[2,3-d]pyrimidin-6-yl)phenyl)-1-(4-fluorophenyl)methanesulfonamide]
10.30	COCCN(C)[C@H]1CC[C@H](Nc2ncc3cc(-c4ccc(NS(=O)(=O)Cc5ccc(F)cc5)c(F)c4)c(=O)n(C(C)C)c3n2)CC1 [Compound 123, N-(2-Fluoro-4-(8-isopropyl-2-(((1r,4r)-4-((2-methoxyethyl)(methyl)amino)cyclohexyl)amino)-7-oxo-7,8-dihydropyrido[2,3-d]pyrimidin-6-yl)phenyl)-1-(4-fluorophenyl)methanesulfonamide]
9.92	COCCN(C)[C@H]1CC[C@H](Nc2ncc3cc(-c4ccc(NS(=O)(=O)Cc5ccccc5)c(F)c4)c(=O)n(C(C)C)c3n2)CC1 [Compound 124, N-(2-Fluoro-4-(8-isopropyl-2-(((1r,4r)-4-((2-methoxyethyl)(methyl)amino)cyclohexyl)amino)-7-oxo-7,8-dihydropyrido[2,3-d]pyrimidin-6-yl)phenyl)-1-phenylmethanesulfonamide hydrochloride]
9.72	CC(C)n1c(=O)c(-c2cc(F)c(NS(=O)(=O)Cc3ccc(C(F)F)cc3)c(F)c2)cc2cnc(N[C@H]3CC[C@H](N(C)C)CC3)nc21 [Compound 125, 1-(4-(Difluoromethyl)phenyl)-N-(4-(2-(((1r,4r)-4-(dimethylamino)cyclohexyl)amino)-8-isopropyl-7-oxo-7,8-dihydropyrido[2,3-d]pyrimidin-6-yl)-2,6-difluorophenyl)methanesulfonamide]
9.62	COCCN(C)[C@H]1CC[C@H](Nc2ncc3cc(-c4ccc(NS(=O)(=O)CCC(F)(F)F)nc4)c(=O)n(C(C)C)c3n2)CC1 [Compound 126, 3,3,3-Trifluoro-N-(5-(8-isopropyl-2-(((1r,4r)-4-((2-methoxyethyl)(methyl)amino)cyclohexyl)amino)-7-oxo-7,8-dihydropyrido[2,3-d]pyrimidin-6-yl)pyridin-2-yl)propane-1-sulfonamide]
9.96	CC(C)n1c(=O)c(-c2cc(F)c(NS(=O)(=O)Cc3ccc(F)cc3)cc2F)cc2cnc(N[C@H]3CC[C@H](N(C)C)CC3)nc21 [Compound 127, N-(4-(2-(((1r,4r)-4-(Dimethylamino)cyclohexyl)amino)-8-isopropyl-7-oxo-7,8-dihydropyrido[2,3-d]pyrimidin-6-yl)-2,5-difluorophenyl)-1-(4-fluorophenyl)methanesulfonamide]
